Legend:
Echinochloa oryzicola [1] = assay: Herbicide activity against Echinochloa oryzicola under greenhouse condition compound treated at 2 leaf-stage measured after 14 to 20 days; type: functional
[2] = system: Schoenoplectiella juncoides; assay: Herbicide activity against Schoenoplectiella juncoides under greenhouse condition compound treated at emergence-stage measured after 14 to 20 days; type: functional
Echinochloa oryzicola [3] = assay: Pre-emergence herbicide activity against Echinochloa oryzicola under greenhouse condition measured after 14 to 20 days; type: functional
Sagittaria pygmaea = assay: Herbicide activity against Sagittaria pygmaea under greenhouse condition compound treated at 0.5 leaf-stage measured after 14 to 20 days; type: functional
Oryza sativa [4] = assay: Phytotoxicity against two-leaf stage Oryza sativa cv. Nihonbare (rice) planted 3 cm depth measured after […]; type: organism-based; conditions: in vivo
Oryza sativa [5] = assay: Phytotoxicity against two-leaf stage Oryza sativa cv. Nihonbare (rice) planted 1 cm depth measured after […]; type: organism-based; conditions: in vivo

SMILES	MED (Echinochloa oryzicola [1]) [g/acre]	MED [2] [g/acre]	MED (Echinochloa oryzicola [3]) [g/acre]	MED (Sagittaria pygmaea) [g/acre]	MTD (Oryza sativa [4]) [g/acre]	MTD (Oryza sativa [5]) [g/acre]
CC1=C(c2ccccc2)C(=O)N(C(C)(C)c2ncc(-c3ccc(Cl)cc3)s2)C1	<5	160	40	160	80	80
CC1=C(c2cccnc2)C(=O)N(C(C)(C)c2nc3ccccc3s2)C1	<5	2.5	2.5	<5	10	5
CCOc1ccc2nc(C(C)(C)N3CC(C)=C(c4ccccc4)C3=O)sc2c1	<5	160	1.25	80	10	5
CC1=C(Oc2ccc(Cl)cc2)C(=O)N(C(C)(C)c2nc3ccccc3s2)C1	<5	160	80	160	40	40
CC1=C(Oc2ccccc2)C(=O)N(C(C)(C)c2nc3ccccc3s2)C1		80	80	40	40	40
CC1=C(c2ccccc2)C(=O)N(C(C)(C)c2nc3cc(F)ccc3s2)C1	5	40	1.25	20	10	1.25
CC1=C(c2ccccc2)C(=O)N(C(C)(C)c2nc3cc(Cl)ccc3s2)C1	<5	40	0.625	80	40	10
CC1=C(c2ccccc2C(F)(F)F)C(=O)N(C(C)(C)c2nc3ccccc3s2)C1	<5	80	20	5	40	20
CC1=C(c2ccccc2C#N)C(=O)N(C(C)(C)c2nc3ccccc3s2)C1	<5	5	10	40	5	> 5
CC1=C(c2cccc(C(F)(F)F)c2)C(=O)N(C(C)(C)c2nc3ccccc3s2)C1	<5	160	80	160	20	20
COc1ccc(C2=C(C)CN(C(C)(C)c3nc4ccccc4s3)C2=O)cc1	<5	80	20	80	40	10
CC1=C(c2ccccc2Br)C(=O)N(C(C)(C)c2nc3ccccc3s2)C1	<5	20	2.5	40	5	> 5
CC1=C(c2ccccc2)C(=O)N(C(C)(C)c2nc3ccccc3n2C)C1	<5	40	<10	20	40	80
CC1=C(c2ccccc2O)C(=O)N(C(C)(C)c2nc3ccccc3s2)C1	<5	2.5	10	80	5	20
CC1=C(c2ccc(Cl)cc2)C(=O)N(C(C)(C)c2nc3ccccc3s2)C1	<5	160	80	160	40	20
CC1=C(c2cccc(Cl)c2)C(=O)N(C(C)(C)c2nc3ccccc3s2)C1	<5	40	10	80	10	5
CC1=C(c2ccccc2)C(=O)N(C(C)(C)c2nc(C(C)(C)C)cs2)C1	5	80	5	80	10	5
CC1=C(c2cccc(F)c2)C(=O)N(C(C)(C)c2nc3ccccc3s2)C1	5	40	5	40	20	5
CC1=C(c2cccc3ccccc23)C(=O)N(C(C)(C)c2nc3ccccc3s2)C1		80	80	80	80	80

SMILES	MED (Echinochloa oryzicola [1]) [g/acre]	MED [2] [g/acre]	MED (Echinochloa oryzicola [3]) [g/acre]	MED (Sagittaria pygmaea) [g/acre]	MTD (Oryza sativa [4]) [g/acre]	MTD (Oryza sativa [5]) [g/acre]
CC1=C(c2ccccc2)C(=O)N(C(C)(C)c2csc(-c3ccccc3)n2)C1	<5	40	40	40	40	40
CC1=C(c2ccccc2)C(=O)N(C(C)(C)c2ncc(C(F)(F)F)cc2Cl)C1	<5	80	<5	80	20	5
CC1=C(c2ccc(F)cc2)C(=O)N(C(C)(C)c2nc3ccccc3s2)C1	5	20	5	20	20	> 5
COc1ccc(C2=C(C)CN(C(C)(C)c3nc4ccccc4s3)C2=O)cc1OC	<5	160	160	160	80	80
CC1=C(c2ccccc2Cl)C(=O)N(C(C)(C)c2nc3ccccc3s2)C1	2.5	10	2.5	10	2.5	1.25
CC1=C(c2ccccc2)C(=O)N(C(C)(C)c2nc3cccc(Cl)c3s2)C1	<5	40	0.156	80	20	10
CC1=C(c2ccccc2)C(=O)N(C(C)(C)c2nc3cc(C)ccc3s2)C1	<5	20	10	10	40	2.5
CC1=C(c2ccccc2)C(=O)N(C(C)(C)c2nc3ccc(F)cc3s2)C1	<5	40	5	40	20	5
CC1=C(c2ccccc2)C(=O)N(C(C)(C)c2nc3ccc(I)cc3s2)C1	<5	20	5	20	10	20
CC1=C(c2ccccc2)C(=O)N(C(C)(C)c2nc3c(C)cccc3s2)C1	<5	160	2.5	80	20	5
CC1=C(c2ccccc2)C(=O)N(C(C)(C)c2cccs2)C1	<10	10	5	20	20	10
CC1=C(c2ccccc2)C(=O)N(C(C)(C)c2nc3ccc(C)cc3s2)C1	<5	80	10	20	20	5
CC1=C(c2ccccc2F)C(=O)N(C(C)(C)c2nc3ccccc3s2)C1	2.5	10	0.156	20	10	5
CC1=C(c2ccccc2)C(=O)N(C(C)(C)c2ccccn2)C1		40	20	80		
CC(C)(c1nc2ccccc2s1)N1CC(C(F)(F)F)=C(c2ccccc2)C1=O	<5	80	1.25	40	10	5
CC1=C(c2ccccc2)C(=O)N(C(C)(C)c2nc3c(Cl)cccc3s2)C1	5	80	1.25	80	10	> 5
COc1ccc2nc(C(C)(C)N3CC(C)=C(c4ccccc4)C3=O)sc2c1	2.5	20	0.313	40	10	> 5
CC1=C(c2ccccc2)C(=O)N(C(C)(C)c2nc3ccc(Cl)cc3s2)C1	<5	160	1.25	80	40	20
CC1=C(c2ccccc2)C(=O)N(C(C)(C)c2nc3cc(Br)ccc3s2)C1		160	20	160	80	80
